# According to patent EP0376166A1, “Condensed quinoline system compound and process of preparation thereof” (MECT CORPORATION, priority 1988, dated 1990):
# Key:
# KB Cell = assay: Inhibition of multiplication (growth) of KB cells, in vitro; type: cell-based, human; conditions: Homo sapiens, 72 h, concentration for 50% growth inhibition vs control, compound added Day 1, cells counted Day 4, read-out: Conc.(ED50)
# Procedure: KB cells, carcinomatous cell tumors, were transferred to in vitro floatation incubator systems, and added respectively with compounds of Examples 1 to 33. The results of cultivation added with these compounds were compared with the results of the control which was not added with any compound.
# Cell used: KB Cell (Originating from human mouth epidermal cancer) Culture medium: Eagles minimal essential medium (MEM) supplemented with 10% calf serum Cultivation: 37°C carbon dioxide gas incubator (5% CO₂)
# Day 0: KB cells were diluted in the culture medium to adjust the KB cell density to 2 x 10⁴/ml. Three ml of the cell suspension was inoculated in each of 60 mm plastic dishes. Two dishes per standard dosage were used. Day 1: Test compound was added to the medium so that the final concentrations were set to 100, 30, 10, 3 and 1 µg/ml. Day 4: Cells were scraped off from the dish using trypsin, and the cell number was countered using a Corter counter.
# In generally accordance with the stipulations set forth by the National Cancer Institute (NCI), U.S.A., the concentration of compound necessary for exerting 50% growth inhibition (ED₅₀) compared to the control was determined. A compound was judged as effective when ED₅₀ was less than 4 µg/ml.
# P-388 = assay: Prolongation of life span in P-388 implanted mice; type: in vivo, CDF mouse; conditions: for response vs control in vivo at 12.5 mg/kg / response vs control in vivo at 25 mg/kg / response vs control in vivo at 50 mg/kg / response vs control in vivo at 100 mg/kg / response vs control in vivo at 200 mg/kg / response vs control in vivo at 400 mg/kg: P388, ip, T/C %, Day 1 and Day 5, P-388 10⁶ cells/mouse i.p., read-out: Ratio of Life Prolongation (%); for response vs control in vivo at 50 mg/kg: dosage 50 mg/kg; for cure: cured mice per group of 6
# Procedure: Animal used: CDF mouse (6 mice/group) Tumor: P-388 Number of implanted cells: 10⁶ cells/mouse Implanted site: i.p. Day of administration: Day 1 and Day 5 Dosage: LD₅₀ or 400 mg/kg/day at the maximum
IC50 (KB Cell) [µg/mL],SMILES,response vs control in vivo at 12.5 mg/kg (P-388; dosage 12.5 mg/kg) [%],response vs control in vivo at 25 mg/kg (P-388; dosage 25 mg/kg) [%],response vs control in vivo at 50 mg/kg (P-388) [%],cure (P-388; dosage 12.5 mg/kg),cure (P-388; dosage 25 mg/kg),response vs control in vivo at 100 mg/kg (P-388; dosage 100 mg/kg) [%],response vs control in vivo at 200 mg/kg (P-388; dosage 200 mg/kg) [%],cure (P-388; dosage 200 mg/kg),response vs control in vivo at 400 mg/kg (P-388; dosage 400 mg/kg) [%],cure (P-388; dosage 100 mg/kg),cure (P-388; dosage 400 mg/kg)
< 0.3,"COc1cc(NS(C)(=O)=O)ccc1Nc1c2ccccc2nc2c1[nH]c1ccc(NC3OC(COC(C)=O)C(OC(C)=O)C(OC(C)=O)C3OC(C)=O)cc12 (centres unmarked) [Compound 23, N-{4-[(7-(2,3,4,6-tetra-O-acetylglycosyl-1-amino)-10H-indolo[3,2-b]quinoline-11-yl)amino]-3-methoxyphenyl} methanesulfonamide]",300,148,58,2/6,1/6,,,,,,
< 0.3,"COc1cc(NS(C)(=O)=O)ccc1Nc1c2ccccc2nc2c1[nH]c1ccc(NC3OC(CO)C(O)C(O)C3O)cc12 (centres unmarked) [Compound 24, N-{4-[(7-(glycosyl-1-amino)-10H-indolo[3,2-b]quinoline-11-yl)amino]-3-methoxyphenyl} methanesulfonamide]",213,145,90,2/6,,,,,,,
< 0.3,COc1cc(NS(C)(=O)=O)ccc1Nc1c2ccccc2nc2c1[nH]c1ccc(NC(C)=O)cc12 [Compound 25],135,174,,,,,,,,,
< 0.3,"COc1cc(NS(C)(=O)=O)ccc1Nc1c2ccccc2nc2c1[nH]c1ccc(NS(C)(=O)=O)cc12 [Compound 26, 2-methanesulfonamide-6-(4-methanesulfonamide-2-methoxyanilino)indolo[3,2-b]quinoline]",126,111,,,,,,,,,
0.38,"COc1cc(NS(C)(=O)=O)ccc1Nc1c2cccc(C)c2nc2c1oc1ccccc12 [Compound 27, 6-(4-methanesulfonamide-2-methoxyanilino)-10-methylbenzofurano[3,2-b]quinoline]",,,,,,230,250,1/6,,,
< 0.3,"COc1cc(NS(C)(=O)=O)ccc1Nc1c2cccc(C)c2nc2c1oc1cccc(C)c12 [Compound 28, 6-(4-methanesulfonamide-2-methoxyanilino)-1,10-dimethylbenzofurano[3,2-b]quinoline]",,,204,,,269,,,,,
< 0.3,"COc1cc(NS(C)(=O)=O)ccc1Nc1c2cccc(C)c2nc2c1oc1cc(C)ccc12 [Compound 29, 6-(4-methanesulfonamide-2-methoxyanilino)-3,10-dimethylbenzofurano[3,2-b]quinoline]",,,,,,204,269,1/6,76,1/6,
1.5,"COc1cc(NS(C)(=O)=O)ccc1Nc1c2ccccc2nc2c1oc1cccc(C)c12 [Compound 30, 6-(4-methanesulfonamide-2-methoxyanilino)-1-methylbenzofurano[3,2-b]quinoline]",,,,,,105,108,,151,,
< 0.3,"COc1cc(NS(C)(=O)=O)ccc1Nc1c2ccccc2nc2c1oc1cc(C)ccc12 [Compound 31, 6-(4-methanesulfonamide-2-methoxyanilino)-3-methylbenzofurano[3,2-b]quinoline]",,,,,,147,175,1/6,219,,1/6
1.4,"COc1cc(NS(C)(=O)=O)ccc1Nc1c2cccc(C)c2nc2c1sc1ccccc12 [Compound 32, 6-(4-methanesulfonamide-2-methoxyanilino)-10-methylbenzothieno[3,2-b]quinoline]",,,,,,137,167,,228,,
< 0.3,"COc1cc(NS(C)(=O)=O)ccc1Nc1c2ccccc2nc2c1sc1cccc(C)c12 [Compound 33, 6-(4-methanesulfonamide-2-methoxyanilino)-1-methylbenzothieno[3,2-b]quinoline]",,,,,,191,255,1/6,280,,1/6
